{
  "source": "patent US10674724B2",
  "about": "“Method of activating immune response in plants” (priority 2012, dated 2020)",
  "key": {"NPR1": {"target": "T1, NPR1 (Arabidopsis thaliana, UniProt P93002)", "T1 construct": "made in house; host or cells: E. coli", "test": "classical non-equilibrium solid-phase [14C]SA binding", "conditions": "radiolabeled SA, washes to remove unbound ligand", "procedure": "To test whether NPR1 can bind SA directly, a classic method to assess Kd values was used, which involved coupling NPR1 to a solid phase and incubating it with radiolabeled SA, followed by washes to remove unbound ligand and counting the amount of ligand bound to NPR1."}, "[1]": {"target": "T2, NPR1-dependent oligomer on the PR-1 promoter (Arabidopsis thaliana, UniProt P93002)", "T2 construct": "in wild-type plants (WT), such an oligomer forms on the PR-1 promoter; endogenous in cells; host or cells: wild-type Arabidopsis plants", "T2 sequence (P93002 1-593)": "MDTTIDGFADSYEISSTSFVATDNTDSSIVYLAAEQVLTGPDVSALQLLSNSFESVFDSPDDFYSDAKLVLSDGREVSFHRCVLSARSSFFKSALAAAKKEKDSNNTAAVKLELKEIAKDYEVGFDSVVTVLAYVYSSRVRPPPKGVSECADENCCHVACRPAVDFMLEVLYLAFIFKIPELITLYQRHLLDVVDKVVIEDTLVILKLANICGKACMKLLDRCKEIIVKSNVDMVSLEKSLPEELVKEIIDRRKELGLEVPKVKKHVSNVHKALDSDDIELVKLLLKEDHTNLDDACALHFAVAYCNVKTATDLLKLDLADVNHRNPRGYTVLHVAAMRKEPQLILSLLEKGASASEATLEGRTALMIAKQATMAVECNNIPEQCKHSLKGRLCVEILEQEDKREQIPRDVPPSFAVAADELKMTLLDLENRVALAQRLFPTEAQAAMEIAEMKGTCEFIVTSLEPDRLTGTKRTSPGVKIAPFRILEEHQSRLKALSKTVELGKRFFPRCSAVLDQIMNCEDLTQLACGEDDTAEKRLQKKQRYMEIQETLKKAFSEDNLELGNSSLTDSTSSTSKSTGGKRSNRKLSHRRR", "test": "Cross-linked-chromatin chromatography (3C Method)", "format": "in vivo", "conditions": "wild-type plants, region −734 to −833", "procedure": "Plant treatment, cross-linking, sonication, and cross-linking reversal were performed as for chromatin-immunoprecipitation (Rochon et al., 2006). Chromatography was as described under “Chromatography”. qPCR was performed with PR1 and Ubiquitin5 primers. PR-1 values were normalized against Ubiquitin5 (see Table 1 for primer sequence).\nAlthough there are no decisive methods to test the stoichiometry of a protein in vivo, it was determined whether or not NPR1-dependent oligomers form on DNA in vivo by combining chromatin cross-linking, gel filtration, and qPCR (the 3C Method). The rationale was that, if an NPR1-dependent oligomer forms on the PR1 promoter in vivo, the presence of PR1 should be detectable by qPCR in the void fraction of an S300 after the chromatin had been cross-linked and sheared by sonication."}, "BTB/POZ-Δ513 interaction [2]": {"target": "T3, BTB/POZ-Δ513 interaction (Arabidopsis thaliana, UniProt P93002)", "T3 sequence (P93002 513-593)": "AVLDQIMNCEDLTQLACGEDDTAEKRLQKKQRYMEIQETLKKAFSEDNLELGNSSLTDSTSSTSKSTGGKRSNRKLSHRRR", "test": "BTB/POZ-Δ513 pull-down assay", "format": "biochemical", "parameters": "made in house; host or cells: E. coli", "conditions": "1 mM SA", "procedure": "The BTB/POZ (amino acids 1-190 of NPR1) was expressed in E. coli as a C-terminal fusion to the Strep-Tag according to standard protocols. The Δ513 of NPR1 was expressed as an N-terminal fusion to the HA-Tag as described above. The VLRSgt (as described in Hall et al. (2007) Plant J 49, 579-591) was expressed in E. coli as an N-terminal fusion to the GST-Tag according to standard protocols. The pull-down assay was performed in the Strep-Tactin buffer. The antibodies used for detecting the tags in the BTB/POZ-Strep was from Qiagen (catalog #34850) and those used for the tags in HA-Δ513 or the GST-VLRSgt were from Santa Cruz Biotechnology (catalog #: sc-7392 and sc-138).\nGiven that the plant two-hybrid system is an in vivo method of analysis, an indirect effect of SA on the interaction of the BTB/POZ and the C-terminus of NPR1 cannot be ruled out. Thus, the interaction in vitro in a pull-down assay (FIG. 8) was tested. […] As negative controls, first an unrelated protein (VLRSgt) was shown not to interact with BTB/POZ (FIG. 5D) and secondly Δ513 was shown not to interact with the solid support in the absence of BTB/POZ (FIG. 5E)."}, "BTB/POZ-Δ513 interaction [3]": {"target": "T3, BTB/POZ-Δ513 interaction", "test": "in vivo plant two-hybrid assay", "format": "cell-based", "parameters": "expressed in transfected cells; host or cells: Arabidopsis thaliana (Columbia) leaves, biolistic bombardment", "conditions": "1 mM salicylic acid in medium, reporter mRNA", "procedure": "Arabidopsis thaliana (Columbia) leaves were harvested from four-week-old plants grown at 21° C. (day) and 18° C. (night) with a ten-hour photoperiod and transferred to Petri dishes containing MS salts and micronutrients supplemented with B5 vitamins, 1% sucrose and 0.8% agar at a pH of 5.8. […] Coating of the gold particles and general procedures and preparation of the biolistic experiments were as per the manufacturer's instructions (Bio-Rad). After bombardment, leaves were kept in the conditions described above for a period of 24 hours before assaying. Enzyme assays were performed using the Dual-Luciferase Reporter Assay® system (Promega) following the manufacturer's instructions. Luminescence was measured on a Berthold Lumat LB9507 Luminometer (Bad Wildbad, Germany) and the data obtained represented the value of the reporter gene divided by the value of the internal standard and expressed as Relative Luciferase Units. To increase signal-to-noise ratio in some experiments, qPCR was performed to measure the amount of Firefly and Renilla Luciferases mRNA. […]\nSince BTB/POZ domains can be autoinhibitory, it was determined whether or not the NPR1 BTB/POZ can interact with the NPR1 transactivation domain. […] Here the reporter gene was monitored through its mRNA as opposed to its enzyme activity, which provided a greater signal-to-noise ratio (see Experimental Procedures). […]"}},
  "data": [
    {"smiles": "O=C(O)c1ccccc1O", "note": "[SA, Salicylic acid]", "values": [
      {"measurement": "binding of SA to NPR1 coupled to a solid phase", "setting": "NPR1", "value": "not above that observed with a solid phase containing no protein"},
      {"measurement": "NPR1-dependent oligomer on the PR-1 promoter (void fraction, qPCR)", "setting": "[1]", "value": "not after a treatment with SA"},
      {"measurement": "BTB/POZ-Δ513 interaction in pull-down", "setting": "BTB/POZ-Δ513 interaction [2]", "value": "disrupted"},
      {"measurement": "BTB/POZ-Δ513 interaction in plant two-hybrid", "setting": "BTB/POZ-Δ513 interaction [3]", "value": "disrupts the BTB/POZ-Δ513 association"}
    ]}
  ]
}
